Values quoted from earlier work as cited in PMC7395068, “The evolution of strategies to minimise the risk of human drug-induced liver injury (DILI) in drug discovery and development” (Archives of Toxicology, 2020).
Read-outs that look alike come from different tables or passages of the source. Where a SMILES comes first, the peptide text is derived from it. [ ]: non-standard residue; d: D form. dPhe(4-Cl) = N[C@H](Cc1ccc(Cl)cc1)C(=O)O; d2Nal = N[C@H](Cc1ccc2ccccc2c1)C(=O)O; dCit = NC(=O)NCCC[C@@H](N)C(=O)O; d3Pal = N[C@H](Cc1cccnc1)C(=O)O

Settings: cited from earlier work
[1] = LTKB DILIrank category, ref Chen 2016
[2] = binary DILI call, ref Chen 2016
[3] = binary in vivo human DILI call, ref Chen 2016
[4] = human DILI, LTKB DILIrank category, ref Chen 2016

CC[C@H](C)C[C@H](C)CCCCCCCCC(=O)N[C@H]1C[C@@H](O)[C@@H](NCCN)NC(=O)[C@@H]2[C@@H](O)CCN2C(=O)[C@H]([C@H](O)CCN)NC(=O)[C@H]([C@H](O)[C@@H](O)c2ccc(O)cc2)NC(=O)[C@@H]2C[C@@H](O)CN2C(=O)[C@H]([C@@H](C)O)NC1=O [caspofungin]
DILI severity category [1]: Ambiguous DILI-concern | DILI +VE (5-8), DILI -VE (-4) [2]: -VE

N[C@@H](C(=O)N[C@@H]1C(=O)N2C(C(=O)O)=C(Cl)CS[C@H]12)c1ccccc1 [cefaclor]
DILI severity category [1]: vLess-DILI-Concern

CC1=C(C(=O)O)N2C(=O)[C@@H](NC(=O)[C@H](N)c3ccc(O)cc3)[C@H]2SC1 [cefadroxil]
DILI severity category [1]: vLess-DILI-Concern

Cc1nnc(SCC2=C(C(=O)O)N3C(=O)[C@@H](NC(=O)Cn4cnnn4)[C@H]3SC2)s1 [cefazolin]
DILI +VE (5-8), DILI -VE (-4) (in vivo): +VE | DILI severity category (in vivo): vLess-DILI-Concern

C=CC1=C(C(=O)O)N2C(=O)[C@@H](NC(=O)/C(=N\O)c3csc(N)n3)[C@H]2SC1 [cefdinir]
DILI severity category [1]: vLess-DILI-Concern

CO/N=C(\C(=O)N[C@@H]1C(=O)N2C(C(=O)O)=C(/C=C\c3scnc3C)CS[C@H]12)c1csc(N)n1 [cefditoren]
DILI severity category [1]: Ambiguous DILI-concern | DILI +VE (5-8), DILI -VE (-4) [2]: -VE

CO/N=C(\C(=O)N[C@@H]1C(=O)N2C(C(=O)[O-])=C(C[N+]3(C)CCCC3)CS[C@H]12)c1csc(N)n1 [cefepime]
DILI +VE (5-8), DILI -VE (-4) (in vivo): +VE | DILI severity category (in vivo): vLess-DILI-Concern

CO[C@@]1(NC(=O)Cc2cccs2)C(=O)N2C(C(=O)O)=C(COC(N)=O)CS[C@@H]21 [cefoxitin]
DILI severity category [1]: Ambiguous DILI-concern | DILI +VE (5-8), DILI -VE (-4) [2]: -VE

COCC1=C(C(=O)O)N2C(=O)[C@@H](NC(=O)/C(=N\OC)c3csc(N)n3)[C@H]2SC1 [cefpodoxime]
DILI severity category [1]: Ambiguous DILI-concern | DILI +VE (5-8), DILI -VE (-4) [2]: -VE

CC=CC1=C(C(=O)O)N2C(=O)[C@@H](NC(=O)[C@H](N)c3ccc(O)cc3)[C@H]2SC1 [cefprozil]
DILI +VE (5-8), DILI -VE (-4) (in vivo): +VE | DILI severity category (in vivo): vLess-DILI-Concern

Nc1nc(/C(=C/CC(=O)O)C(=O)N[C@@H]2C(=O)N3C(C(=O)O)=CCS[C@H]23)cs1 [ceftibuten]
DILI severity category [1]: Ambiguous DILI-concern | DILI +VE (5-8), DILI -VE (-4) [2]: -VE

CO/N=C(\C(=O)N[C@@H]1C(=O)N2C(C(=O)O)=CCS[C@H]12)c1csc(N)n1 [ceftizoxime]
DILI severity category [1]: Ambiguous DILI-concern | DILI +VE (5-8), DILI -VE (-4) [2]: -VE

CO/N=C(\C(=O)N[C@@H]1C(=O)N2C(C(=O)O)=C(COC(N)=O)CS[C@H]12)c1ccco1 [cefuroxime]
DILI severity category [1]: vLess-DILI-Concern

CC1=C(C(=O)O)N2C(=O)[C@@H](NC(=O)[C@H](N)C3=CCC=CC3)[C@H]2SC1 [cephradine]
DILI severity category [1]: Ambiguous DILI-concern | DILI +VE (5-8), DILI -VE (-4) [2]: -VE

CC(=O)N[C@H](Cc1ccc2ccccc2c1)C(=O)N[C@H](Cc1ccc(Cl)cc1)C(=O)N[C@H](Cc1cccnc1)C(=O)N[C@@H](CO)C(=O)N[C@@H](Cc1ccc(O)cc1)C(=O)N[C@H](CCCNC(N)=O)C(=O)N[C@@H](CC(C)C)C(=O)N[C@@H](CCCNC(=N)N)C(=O)N1CCC[C@H]1C(=O)N[C@H](C)C(N)=O [cetrorelix] (Ac-[d2Nal][dPhe(4-Cl)][d3Pal]SY[dCit]LRP[dA]-NH2)
DILI severity category [1]: Ambiguous DILI-concern | DILI +VE (5-8), DILI -VE (-4) [2]: -VE

CC1OC2(CS1)CN1CCC2CC1 (stereo not shown) [cevimeline]
DILI severity category [1]: Ambiguous DILI-concern | DILI +VE (5-8), DILI -VE (-4) [2]: -VE

CN1CCN(C(c2ccccc2)c2ccc(Cl)cc2)CC1 (stereo not shown) [chlorcyclizine]
DILI severity category [1]: vLess-DILI-Concern

CNC1=Nc2ccc(Cl)cc2C(c2ccccc2)=[N+]([O-])C1 [chlordiazepoxide]
DILI +VE (5-8), DILI -VE (-4) (in vivo): +VE | DILI severity category (in vivo): vLess-DILI-Concern

CN1C(=O)CCS(=O)(=O)C1c1ccc(Cl)cc1 (stereo not shown) [chlormezanone]
DILI +VE (5-8), DILI -VE (-4) (in vivo): +VE | DILI severity category (in vivo): vMost-DILI-Concern

NS(=O)(=O)c1cc(C2(O)NC(=O)c3ccccc32)ccc1Cl (stereo not shown) [chlorthalidone]
DILI severity category [1]: Ambiguous DILI-concern | DILI +VE (5-8), DILI -VE (-4) [2]: -VE

Nc1ccn(C[C@@H](CO)OCP(=O)(O)O)c(=O)n1 [cidofovir]
DILI severity category [1]: Ambiguous DILI-concern | DILI +VE (5-8), DILI -VE (-4) [2]: -VE

C[C@@H](NCCCc1cccc(C(F)(F)F)c1)c1cccc2ccccc12 [cinacalcet]
DILI severity category [1]: vNo-DILI-Concern | DILI +VE (5-8), DILI -VE (-4) [2]: -VE

COc1ccc(C[C@@H]2c3cc(OC)c(OC)cc3CC[N@+]2(C)CCC(=O)OCCCCCOC(=O)CC[N@@+]2(C)CCc3cc(OC)c(OC)cc3[C@H]2Cc2ccc(OC)c(OC)c2)cc1OC [cisatracurium besylate]
DILI severity category [1]: vNo-DILI-Concern | DILI +VE (5-8), DILI -VE (-4) [2]: -VE

CCC[C@@H]1C[C@@H](C(=O)N[C@@H]([C@H]2O[C@H](SC)[C@H](OP(=O)(O)O)[C@@H](O)[C@H]2O)[C@H](C)Cl)N(C)C1 [clindamycin-2-phosphate]
DILI severity category (in vivo): Ambiguous DILI-concern

CCC[C@@H]1C[C@@H](C(=O)N[C@@H]([C@H]2O[C@H](SC)[C@H](O)[C@@H](O)[C@H]2O)[C@H](C)Cl)N(C)C1 [clindamycin]
DILI severity category (in vivo): vLess-DILI-Concern

Nc1nc(Cl)nc2c1ncn2[C@@H]1O[C@H](CO)[C@@H](O)[C@@H]1F [clofarabine]
DILI severity category [1]: Ambiguous DILI-concern | DILI +VE (5-8), DILI -VE (-4) [2]: -VE

CN(C)CCCC1c2ccccc2Nc2ccc(Cl)cc21 (stereo not shown) [clomacran]
DILI severity category [1]: vMost-DILI-Concern

COc1ccc2c(C(=O)c3ccc(Cl)cc3)c(C)n(CC(=O)O)c2c1 [clometacin]
DILI severity category [1]: vMost-DILI-Concern

CCN(CC)CCOc1ccc(C(=C(Cl)c2ccccc2)c2ccccc2)cc1 [clomiphene]
DILI severity category [1]: vLess-DILI-Concern

COC(=O)[C@H](c1ccccc1Cl)N1CCc2sccc2C1 [clopidogrel]
DILI severity category [1]: vLess-DILI-Concern

O=C(O)C1N=C(c2ccccc2)c2cc(Cl)ccc2NC1=O (stereo not shown) [clorazepate]
DILI severity category [1]: Ambiguous DILI-concern | DILI +VE (5-8), DILI -VE (-4) [2]: -VE

COc1ccc2c3c1O[C@H]1[C@@H](O)C=C[C@H]4[C@@H](C2)N(C)CC[C@@]341 [codeine]
DILI +VE (5-8), DILI -VE (-4) (in vivo): -VE | DILI severity category (in vivo): vNo-DILI-Concern

CC(=O)OCC(=O)[C@@]1(O)CC[C@H]2[C@@H]3CCC4=CC(=O)CC[C@]4(C)[C@H]3C(=O)C[C@@]21C [cortisone acetate]
DILI +VE (5-8), DILI -VE (-4) [3]: -VE | DILI severity category [4]: vNo-DILI-Concern

[Cl][Cu][Cl] [cupric chloride]
DILI +VE (5-8), DILI -VE (-4) (in vivo): -VE | DILI severity category (in vivo): vNo-DILI-Concern

NCCS [cysteamine]
DILI +VE (5-8), DILI -VE (-4) [3]: -VE | DILI severity category [4]: Ambiguous DILI-concern

CCCCCCCCCC(=O)N[C@@H](Cc1c[nH]c2ccccc12)C(=O)N[C@H](CC(N)=O)C(=O)N[C@@H](CC(=O)O)C(=O)N[C@@H]1C(=O)NCC(=O)N[C@@H](CCCN)C(=O)N[C@@H](CC(=O)O)C(=O)N[C@H](C)C(=O)N[C@@H](CC(=O)O)C(=O)NCC(=O)N[C@H](CO)C(=O)N[C@@H]([C@H](C)CC(=O)O)C(=O)N[C@@H](CC(=O)c2ccccc2N)C(=O)O[C@@H]1C [daptomycin]
DILI +VE (5-8), DILI -VE (-4) [3]: +VE | DILI severity category [4]: vLess-DILI-Concern
